Assay results: PubChem BioAssay (NCI)
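Five compound concentrations were applied to cells in 96-well plates for 48 hours; endpoints were derived by simple linear interpolation of the resulting dose-response curve. At the GI50, growth is halved. Definition used: TGI = concentration required for complete inhibition of growth.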

Tests used:
Experiment in all cases: NCI tumour cell line growth inhibition, 48 h
MALME-3M melanoma = tested on: MALME-3M melanoma
HCT-15 colon = tested on: HCT-15 colon
UACC-257 melanoma = tested on: UACC-257 melanoma
UO-31 renal = tested on: UO-31 renal
SW-620 colon = tested on: SW-620 colon
A498 renal = tested on: A498 renal
HCC-2998 colon = tested on: HCC-2998 colon
UACC-62 melanoma = tested on: UACC-62 melanoma
SNB-78 CNS = tested on: SNB-78 CNS
DLD-1 colon = tested on: DLD-1 colon

SMILES | GI50 (MALME-3M melanoma) [µM] | TGI (MALME-3M melanoma) [µM] | GI50 (HCT-15 colon) [µM] | TGI (HCT-15 colon) [µM] | GI50 (UACC-257 melanoma) [µM] | TGI (UACC-257 melanoma) [µM] | GI50 (UO-31 renal) [µM] | TGI (UO-31 renal) [µM] | GI50 (SW-620 colon) [µM] | TGI (SW-620 colon) [µM] | GI50 (A498 renal) [µM] | TGI (A498 renal) [µM] | GI50 (HCC-2998 colon) [µM] | TGI (HCC-2998 colon) [µM] | GI50 (UACC-62 melanoma) [µM] | TGI (UACC-62 melanoma) [µM] | TGI (SNB-78 CNS) [µM] | TGI (DLD-1 colon) [µM] | GI50 (SNB-78 CNS) [µM] | GI50 (DLD-1 colon) [µM]
Cc1ccc(S(=O)(=O)Cc2nc(-c3ccc(C(=O)NCc4cccnc4)cc3)oc2C)cc1 | 27.5 | > 100 | 0.0524 | > 100 | > 100 | > 100 | 23.7 | > 100 | < 0.01 | > 100 | > 100 | > 100 | 18.4 | > 100 | > 91.2 | > 100 |  |  |  | 
COc1ccc(Cn2cc3c(c2-c2cc(OC)c(OC)c(OC)c2)CCc2cnoc2-3)cc1[N+](=O)[O-] | 0.387 | > 100 | 0.573 | > 100 | 4.03 | > 100 | 1.26 | > 100 | 0.482 | > 100 | 0.617 |  | 1.93 | > 31.6 | 0.404 | > 100 |  |  |  | 
CCOC(=O)NC(=O)c1cn(CCN2CCN(C(=O)CCCCCCCCCCNc3ncnc4nc[nH]c34)CC2)c(=O)[nH]c1=O |  | > 100 |  | > 100 |  | > 100 |  | > 100 |  | > 100 |  |  |  | > 100 |  | > 100 | > 100 | > 100 |  | 
CN(CCCl)c1ccc(/C=C/C2=[N+](C)c3ccccc3C2(C)C)cc1 | 0.575 | 4.3 | 6.3 | 21.7 | 0.657 | 7.57 | 4.39 | 17.4 | 0.494 | 14 | 1.34 | 12.6 | 1.6 | 12.8 | 0.482 | 7.68 |  |  |  | 
C#Cc1cccc(Nc2nc3ccc([N+](=O)[O-])cc3nc2Nc2cccc(C#C)c2)c1 | 0.235 | 0.614 | 0.197 | 0.716 | 0.207 | 0.602 | 0.321 | 1.14 | 0.291 | 1.09 | 0.227 | 0.783 | 0.341 | 1.27 | 0.302 | 1.2 |  |  |  | 
Cc1cc(C)nc(SC2=C(Nc3cccc(Cl)c3C)C(=O)N(Cc3ccccc3)C2=O)n1 | > 160 | > 160 | > 160 | > 160 | > 160 | > 160 | > 160 | > 160 | > 160 | > 160 | > 160 | > 160 | > 160 | > 160 | > 160 | > 160 |  |  |  | 
CS(=O)(=O)CCNCc1ccc(-c2ccc3ncnc(Nc4ccc(OCc5ccccc5)c(Cl)c4)c3c2)o1 | 5.18 | 10.4 | 3.55 | 10 | 3.92 | 7.74 | 1.64 | 7.38 | 4.49 | 8.98 | 1.56 | 9.33 | 4.27 | 8.37 | 4.11 | 8.15 |  |  |  | 
CC1=C(c2cc(C(=O)Nc3cccc(C(F)(F)F)c3)ncn2)Sc2ccccc2N1 |  | > 100 |  | > 100 |  | > 100 |  | > 100 |  | > 100 |  | > 100 |  |  |  | > 100 |  | > 100 |  | 
COc1ccc(-c2csc(-c3cc(Cl)cc(Cl)c3Cl)n2)cc1 | 81.1 | > 100 | 73.5 | > 100 | 62.7 | > 100 | > 100 | > 100 | 42.4 | > 100 | > 100 | > 100 | 44.6 | > 100 | 41.9 | > 100 |  |  |  | 
O=C([O-])c1ccc(C(=O)[O-])cc1.O=C([O-])c1ccc(C(=O)[O-])cc1.[Mo+2].[Mo+2] | > 100 | > 100 | > 100 | > 100 | > 100 | > 100 | > 100 | > 100 | > 100 | > 100 |  |  | > 100 | > 100 | > 100 | > 100 | > 100 | > 100 | > 100 | > 100
Cc1nc(Nc2ccc([N+](=O)[O-])cc2)sc1C(/C=C/c1ccc(N(C)C)cc1)=N/NC(=O)c1ccccc1 |  | > 100 |  | > 100 |  | > 100 |  | > 100 |  | > 100 |  |  |  | > 100 |  | 28.5 | > 100 | > 100 |  | 
N[C@@H]1CCCN(c2c(/C=C3\SC(=O)NC3=O)cccc2-c2ccccc2)C1 | 7.52 | 24.5 | 13.7 | 29.5 | 10.9 | 23.5 | 12.7 | 27.3 | 12.8 | 28.3 | 1.5 | 18.8 | 14.1 | 28.6 | 13.7 | 27.3 |  |  |  | 
O=C(OCc1ccc2c(Cl)cc(Cl)c(O)c2n1)c1cc2ccccc2[nH]1 | 1.26 | 2.6 | 0.217 | 0.517 | 0.88 | 3 | 0.164 | 0.331 | 0.241 | 0.613 | 1.63 | 3 | 1.51 | 3.02 | 0.478 | 1.7 |  |  |  | 
COc1ccc(C(=O)c2cc3c(N)c(C(=O)Nc4cccc(Cl)c4C)sc3nc2C)cc1 | 0.205 | > 25 | 0.101 | > 25 | > 6.12 | > 25 | 0.634 | > 25 | 0.105 | > 25 | 0.0691 | 0.558 | 0.28 | > 25 | 0.12 | > 25 |  |  |  | 
NC(=O)/C=C/NC(=O)/C=N\O |  | > 100 |  | > 100 |  | > 100 |  | > 100 |  | > 100 |  | > 100 |  | > 100 |  | > 100 |  |  |  | 
